Results reported in the NIST ThermoML archive (doi:10.1016/j.jct.2005.03.019).

Test: xn = mol fraction of the nth substance listed
Details: 101 kPa, Liquid, Vibrating tube method

CC1COC(=O)O1 (centres undefined) [4-methyl-1,3-dioxolan-2-one] + CCc1ccccc1
Details	mass density [kg/m3]
293.15 K, x2 = 0	1200.3
293.15 K, x2 = 0.0592	1173.5
293.15 K, x2 = 0.1139	1149.9
293.15 K, x2 = 0.1749	1124.6
293.15 K, x2 = 0.2471	1096.1
293.15 K, x2 = 0.3274	1066.1
293.15 K, x2 = 0.3856	1045.5
293.15 K, x2 = 0.4527	1022.7
293.15 K, x2 = 0.5049	1005.6
293.15 K, x2 = 0.5672	986.1
293.15 K, x2 = 0.6368	965.1
293.15 K, x2 = 0.6978	947.4
293.15 K, x2 = 0.7529	932
293.15 K, x2 = 0.8149	915.2
293.15 K, x2 = 0.8742	899.6
293.15 K, x2 = 0.9368	883.5
303.15 K, x2 = 0	1180.6
303.15 K, x2 = 0.0489	1159.1
303.15 K, x2 = 0.1278	1126.2
303.15 K, x2 = 0.1974	1098.6
303.15 K, x2 = 0.2484	1079.4
303.15 K, x2 = 0.3149	1055.2
303.15 K, x2 = 0.3759	1034.1
303.15 K, x2 = 0.4349	1014.5
303.15 K, x2 = 0.4876	997.7
303.15 K, x2 = 0.5498	978.5
303.15 K, x2 = 0.5922	965.9
303.15 K, x2 = 0.659	946.7
303.15 K, x2 = 0.7249	928.4
303.15 K, x2 = 0.7941	910
303.15 K, x2 = 0.8578	893.5
303.15 K, x2 = 0.9247	876.8
313.15 K, x2 = 0	1161.3
313.15 K, x2 = 0.0662	1133.7
313.15 K, x2 = 0.1258	1110
313.15 K, x2 = 0.1835	1088
313.15 K, x2 = 0.2458	1065.3
313.15 K, x2 = 0.3342	1034.7
313.15 K, x2 = 0.3958	1014.5
313.15 K, x2 = 0.4592	994.6
313.15 K, x2 = 0.5135	978.2
313.15 K, x2 = 0.5629	963.7
313.15 K, x2 = 0.6248	946.2
313.15 K, x2 = 0.6724	933.2
313.15 K, x2 = 0.7383	915.7
313.15 K, x2 = 0.7873	903.2
313.15 K, x2 = 0.8534	886.7
313.15 K, x2 = 0.9378	866.4
323.15 K, x2 = 0	1142.4
323.15 K, x2 = 0.0635	1117.4
323.15 K, x2 = 0.1139	1098.3
323.15 K, x2 = 0.1729	1076.8
323.15 K, x2 = 0.2384	1054
323.15 K, x2 = 0.3248	1025.4
323.15 K, x2 = 0.3859	1006.2
323.15 K, x2 = 0.4523	986.2
323.15 K, x2 = 0.5048	971
323.15 K, x2 = 0.5733	951.9
323.15 K, x2 = 0.6387	934.4
323.15 K, x2 = 0.7038	917.6
323.15 K, x2 = 0.7587	903.8
323.15 K, x2 = 0.8137	890.5
323.15 K, x2 = 0.8698	877.2
323.15 K, x2 = 0.9247	864.5
333.15 K, x2 = 0	1124
333.15 K, x2 = 0.0587	1102.4
333.15 K, x2 = 0.1328	1076.2
333.15 K, x2 = 0.1849	1058.6
333.15 K, x2 = 0.2489	1037.9
333.15 K, x2 = 0.3186	1016.2
333.15 K, x2 = 0.3767	998.9
333.15 K, x2 = 0.435	982.2
333.15 K, x2 = 0.4957	965.5
333.15 K, x2 = 0.5549	949.7
333.15 K, x2 = 0.6247	931.8
333.15 K, x2 = 0.6978	913.8
333.15 K, x2 = 0.7629	898.4
333.15 K, x2 = 0.8247	884.2
333.15 K, x2 = 0.8624	875.7
333.15 K, x2 = 0.9358	859.5
343.15 K, x2 = 0	1106
343.15 K, x2 = 0.0524	1088.2
343.15 K, x2 = 0.1125	1068.5
343.15 K, x2 = 0.1828	1046.3
343.15 K, x2 = 0.2398	1029.1
343.15 K, x2 = 0.3049	1010.2
343.15 K, x2 = 0.3673	992.8
343.15 K, x2 = 0.4348	974.7
343.15 K, x2 = 0.4817	962.6
343.15 K, x2 = 0.5428	947.3
343.15 K, x2 = 0.6048	932.3
343.15 K, x2 = 0.6721	916.5
343.15 K, x2 = 0.7498	899
343.15 K, x2 = 0.8247	882.7
343.15 K, x2 = 0.8827	870.5
343.15 K, x2 = 0.9478	857
353.15 K, x2 = 0	1088.4
353.15 K, x2 = 0.0629	1069.2
353.15 K, x2 = 0.1272	1050.2
353.15 K, x2 = 0.1947	1031
353.15 K, x2 = 0.2598	1013.3
353.15 K, x2 = 0.3138	999
353.15 K, x2 = 0.3945	978.6
353.15 K, x2 = 0.4629	962
353.15 K, x2 = 0.5148	949.8
353.15 K, x2 = 0.5749	936.1
353.15 K, x2 = 0.6345	923
353.15 K, x2 = 0.7039	908.2
353.15 K, x2 = 0.7635	895.8
353.15 K, x2 = 0.8137	885.7
353.15 K, x2 = 0.8642	875.7
353.15 K, x2 = 0.9248	863.9

CC1COC(=O)O1 (centres undefined) [4-methyl-1,3-dioxolan-2-one] + Cc1ccccc1
Details	mass density [kg/m3]
293.15 K, x2 = 0	1200.3
293.15 K, x2 = 0.0578	1177.7
293.15 K, x2 = 0.1279	1151
293.15 K, x2 = 0.1735	1133.9
293.15 K, x2 = 0.2387	1110
293.15 K, x2 = 0.3248	1079.4
293.15 K, x2 = 0.3891	1057.1
293.15 K, x2 = 0.4398	1039.9
293.15 K, x2 = 0.5179	1014
293.15 K, x2 = 0.5621	999.7
293.15 K, x2 = 0.6381	975.4
293.15 K, x2 = 0.7139	951.8
293.15 K, x2 = 0.7639	936.5
293.15 K, x2 = 0.8247	918.2
293.15 K, x2 = 0.8739	903.6
293.15 K, x2 = 0.9376	884.9
303.15 K, x2 = 0	1180.6
303.15 K, x2 = 0.0516	1161
303.15 K, x2 = 0.1211	1135.3
303.15 K, x2 = 0.1782	1114.7
303.15 K, x2 = 0.2298	1096.4
303.15 K, x2 = 0.2971	1073
303.15 K, x2 = 0.3565	1052.9
303.15 K, x2 = 0.4134	1034
303.15 K, x2 = 0.4681	1016.2
303.15 K, x2 = 0.5371	994.2
303.15 K, x2 = 0.6021	973.9
303.15 K, x2 = 0.6629	955.4
303.15 K, x2 = 0.7232	937.2
303.15 K, x2 = 0.7832	919.5
303.15 K, x2 = 0.8537	899.1
303.15 K, x2 = 0.9245	878.8
313.15 K, x2 = 0	1161.3
313.15 K, x2 = 0.0467	1144.2
313.15 K, x2 = 0.1274	1115.2
313.15 K, x2 = 0.1832	1095.7
313.15 K, x2 = 0.2572	1070.4
313.15 K, x2 = 0.3291	1046.5
313.15 K, x2 = 0.3938	1025.5
313.15 K, x2 = 0.4531	1006.7
313.15 K, x2 = 0.5291	983.2
313.15 K, x2 = 0.5919	964.2
313.15 K, x2 = 0.6472	947.7
313.15 K, x2 = 0.6938	934.1
313.15 K, x2 = 0.7524	917.2
313.15 K, x2 = 0.8138	899.7
313.15 K, x2 = 0.8623	886.1
313.15 K, x2 = 0.9427	863.9
323.15 K, x2 = 0	1142.4
323.15 K, x2 = 0.0592	1121.4
323.15 K, x2 = 0.114	1102.4
323.15 K, x2 = 0.1734	1082.1
323.15 K, x2 = 0.2378	1060.7
323.15 K, x2 = 0.3139	1036
323.15 K, x2 = 0.3681	1018.8
323.15 K, x2 = 0.4244	1001.4
323.15 K, x2 = 0.4711	987.1
323.15 K, x2 = 0.5137	974.3
323.15 K, x2 = 0.5828	954
323.15 K, x2 = 0.6528	933.8
323.15 K, x2 = 0.725	913.4
323.15 K, x2 = 0.7941	894.2
323.15 K, x2 = 0.8529	878.2
323.15 K, x2 = 0.9172	860.9
333.15 K, x2 = 0	1124
333.15 K, x2 = 0.0545	1105.2
333.15 K, x2 = 0.1287	1080.2
333.15 K, x2 = 0.1831	1062.3
333.15 K, x2 = 0.2417	1043.4
333.15 K, x2 = 0.3274	1016.5
333.15 K, x2 = 0.3818	999.9
333.15 K, x2 = 0.4383	983
333.15 K, x2 = 0.4819	970.1
333.15 K, x2 = 0.5381	953.9
333.15 K, x2 = 0.5821	941.3
333.15 K, x2 = 0.6421	924.5
333.15 K, x2 = 0.7138	904.8
333.15 K, x2 = 0.7832	886.1
333.15 K, x2 = 0.8527	867.7
333.15 K, x2 = 0.9323	846.9
343.15 K, x2 = 0	1106
343.15 K, x2 = 0.0613	1085.5
343.15 K, x2 = 0.1248	1064.7
343.15 K, x2 = 0.1822	1046.3
343.15 K, x2 = 0.2489	1025.5
343.15 K, x2 = 0.3011	1009.5
343.15 K, x2 = 0.3719	988.4
343.15 K, x2 = 0.458	963.3
343.15 K, x2 = 0.5043	950.2
343.15 K, x2 = 0.5729	931.1
343.15 K, x2 = 0.6429	912
343.15 K, x2 = 0.7041	895.7
343.15 K, x2 = 0.7634	880.1
343.15 K, x2 = 0.8241	864.4
343.15 K, x2 = 0.8721	852.2
343.15 K, x2 = 0.9347	836.3
353.15 K, x2 = 0	1088.4
353.15 K, x2 = 0.0524	1071.3
353.15 K, x2 = 0.1139	1051.6
353.15 K, x2 = 0.1942	1026.6
353.15 K, x2 = 0.2589	1007
353.15 K, x2 = 0.3238	987.8
353.15 K, x2 = 0.4035	964.9
353.15 K, x2 = 0.4598	949.1
353.15 K, x2 = 0.5243	931.4
353.15 K, x2 = 0.5825	915.7
353.15 K, x2 = 0.6359	901.6
353.15 K, x2 = 0.693	886.8
353.15 K, x2 = 0.7749	865.9
353.15 K, x2 = 0.8371	850.3
353.15 K, x2 = 0.8689	842.4
353.15 K, x2 = 0.9432	824.2
